Patent US20070275382A1, “Biomarkers for the Efficacy of Somatostatin Analogue Treatment” (priority 2003, published 2007)
*1 amine or outer side, *2 acyl side, *3 side chain or, on linkers, in order; H or OH if unused. Where a SMILES comes first, the peptide text is derived from it. Side-chain parts run from the residue outwards. [ ]: non-standard residue; d: D form. The star is where a group is joined. Ethylenediamine = C(CN[*:2])N[*:1]; Hyp = O=C(O)[CH]1C[CH](O)CN1; Phg = N[CH](C(=O)O)c1ccccc1; CO = O=C([*:1])[*:2]; Bn = c1ccc(C*)cc1

Test system: Spleen
Test: Microarray gene expression profiling (HG-U95A), spleen
Assay type: in vivo, cynomolgus monkeys
Experimental: Origin of tissue and processing. Male and female cynomolgus monkeys received subcutaneously pasireotide (100 μg/animal/day) or the vehicle for 14 days. On day 15, all animals were sacrificed and tissues for RNA extraction were immediately snap-frozen and kept at −80° C. until processing.
RNA expression profiling was conducted by means of the HG-U95A gene expression probe array (Affymetrix; Santa Clara, Calif. USA), containing more than 12,600 probe sets interrogating primarily full-length human genes and also some control probe sets. The experiment was conducted according to the recommendations of the manufacturer. Briefly, total RNA was obtained by acid guanidinium thiocyanate-phenol-chloroform extraction (Trizol®, Invitrogen Life Technologies, San Diego, Calif. USA) from each frozen tissue section. The total RNA was then purified on an affinity resin (Rneasy®, Qiagen) and quantified. Double stranded cDNA was synthesized with a starting amount of approximately 5 μg full-length total RNA using the Superscript® Choice System (Invitrogen Life Technologies, Carlsbad, Calif. USA) in the presence of a T7-(dT)24 DNA oligonucleotide primer. Following synthesis, the cDNA was purified by phenol/chloroform/isoamyl alcohol extraction and ethanol precipitation. The purified cDNA was then transcribed in vitro using the BioArray® High Yield RNA Transcript Labeling Kit (ENZO, Farmingdale, N.Y. USA) in the presence of biotinylated ribonucleotides form biotin labelled cRNA. The labelled cRNA was then purified on an affinity resin (Rneasy®, Qiagen), quantified and fragmented. An amount of approximately 10 μg labelled cRNA was hybridized for 16 hours at 45° C. to an expression probe array. The array was then washed and stained twice with streptavidin-phycoerythrin (Molecular Probes,) using the GeneChip® Fluidics Workstation 400 (Affymetrix, Santa Clara, Calif. USA). The array was then scanned twice using a confocal laser scanner (GeneArray® Scanner, Agilent, Palo Alto, Calif. USA) resulting in one scanned image. This resulting “.dat-file” was processed using the MAS4 program (Affymetrix) into a “.cel-file”. The “.cel file” was captured and loaded into the Affymetrix GeneChip® Laboratory Information Management System (LIMS). The LIMS database is connected to a UNIX Sun Solaris server through a network filing system that allows for the average intensities for all probes cells (CEL file) to be downloaded into an Oracle database (NPGN). Raw data was converted to expression levels using a “target intensity” of 150. The data were evaluated for quality control and loaded in the GeneSpring® software 4.2.4 (Silicon Genetics, Calif. USA) for analysis.
On the human Affymetrix HGU95Av2 chip, probe sets for individual genes contain 20 oligonucleotide pairs, each composed of a “perfect match” 25-mer and a “mismatch” 25-mer differing from the “perfect” match oligonucleotide at a single base. After probe labelling, hybridization, and laser scanning, the expression level was estimated by averaging the differences in signal intensity measured by oligonucleotide pairs of a given probe (AvgDiff value). The fold changes and directions were calculated for selected genes, from the differences of the AvgDiff values between controls and treated.
To identify genes that were impacted by pasireotide, the dataset was initially filtered to exclude in a first wave of analysis, genes whose values were systematically in the lower expression ranges where the experimental noise is high (at least 80 in a number of experiments corresponding to the smallest number of replicas of any experimental point). In a second round of selection a threshold p-value of 0.05 (based on a t-test) identified differences between treated and control based on a two component error model (Global Error Model) and, whenever possible, with a stepdown correction for multi-hypothesis testing (Benjamini and Hochberg false discovery rate). […]

[1] = ↑ increase, treated vs controls
[2] = ↓ decrease, treated vs controls

Question: How did the “IGF-1 expression level, AvgDiff (range)” value (0.1 mg/animal/14day) turn out when `NCCCCC1NC(=O)C(Cc2c[nH]c3ccccc23)NC(=O)C(c2ccccc2)NC(=O)C2CC(OC(=O)NCCN)CN2C(=O)C(Cc2ccccc2)NC(=O)C(Cc2ccc(OCc3ccccc3)cc2)NC1=O` (stereo not drawn) [Pasireotide, cyclo[4-(NH2—C2H4—NH—CO—O)Pro-Phg-DTrp-Lys-Tyr(4-Bzl)-Phe]] (cyclo(F[Hyp]([CO-Ethylenediamine])[Phg]WKY(Bn)); configuration not given here) was run?
Answer: Its value is 85 (52 to 125).

Question: And the “IGFBP6 expression level, AvgDiff (range)” value (0.1 mg/animal/14day)?
Answer: The value was 1,043 (853 to 1,155).

Question: What about the “SSTR2 expression level, AvgDiff (range)” value (0.1 mg/animal/14day) of the same compound?
Answer: Its value is 93 (87 to 95).

Question: And the “ATPase, Na+/K+ transporting, β 1 polypeptide RNA expression fold change” value [1]?
Answer: Its value is “polypeptide ↑ x2.5”.

Question: What about the “Arginine vasopressin receptor 1B RNA expression fold change” value [1] of the same compound?
Answer: Its value is “receptor 1B ↑ x2”.

Question: And the “Bcl-2 binding component 3 RNA expression fold change” value [1]?
Answer: The value was “↑ x2.5”.

Question: What about the “Ca++ channel, voltage-dependent, α 2/δ subunit 1 RNA expression fold change” value [1] of the same compound?
Answer: The value was “subunit 1 ↑ x2”.

Question: And the “Ca++ channel, voltage-dependent, α 2/δ subunit 2 RNA expression fold change” value [1]?
Answer: The value was “↑ x1.5”.

Question: What about the “Calcium/calmodulin-dependent protein kinase (CaM kinase) II β RNA expression fold change” value [1] of the same compound?
Answer: The value was “II β ↑ x2”.

Question: And the “Calmodulin 1 (phosphorylase kinase, δ) RNA expression fold change” value [1]?
Answer: Its value is “kinase, δ) ↑ x2”.

Question: And the “Calmodulin 2 (phosphorylase kinase, δ) RNA expression fold change” value [1]?
Answer: The value was “kinase, δ) ↑ x1.5”.

Question: And the “Caspase 8, apoptosis-related cysteine protease RNA expression fold change” value [1]?
Answer: The value was “↑ x2.5”.

Question: What about the “Cdk 2 RNA expression fold change” value [1] of the same compound?
Answer: The value was “Cdk 2 ↑ x1.5”.

Question: And the “Cdk 5, regulatory subunit 1 (p35) RNA expression fold change” value [1]?
Answer: Its value is “↑ x2”.

Question: And the “Cdk 6 RNA expression fold change” value [1]?
Answer: The value was “Cdk 6 ↑ x3”.

Question: What about the “Cyclin D2 RNA expression fold change” value [1] of the same compound?
Answer: The value was “Cyclin D2 ↑ x1.5”.

Question: What about the “Death-associated protein RNA expression fold change” value [1] of the same compound?
Answer: Its value is “↑ x1.5”.

Question: What about the “Follistatin-like 1 RNA expression fold change” value [1] of the same compound?
Answer: Its value is “↑ x1.5”.

Question: What about the “Gastric inhibitory polypeptide receptor RNA expression fold change” value [1] of the same compound?
Answer: The value was “receptor ↑ x2”.

Question: And the “HGF activator inhibitor precursor RNA expression fold change” value [1]?
Answer: The value was “↑ x1.5”.

Question: What about the “IFN regulatory factor 2 RNA expression fold change” value [1] of the same compound?
Answer: The value was “factor 2 ↑ x3.5”.

Question: What about the “IFN-inducible RNA-dependent protein kinase RNA expression fold change” value [1] of the same compound?
Answer: The value was “↑ x2.5”.

Question: And the “IFNγ receptor 2 (IFNγ transducer 1) RNA expression fold change” value [1]?
Answer: The value was “↑ x1.5”.

Question: What about the “IFNγ responsive transcript RNA expression fold change” value [1] of the same compound?
Answer: The value was “↑ x2”.

Question: What about the “IGF-1 RNA expression fold change” value [1] of the same compound?
Answer: The value was “IGF-1 ↑ x1.5”.

Question: And the “IGFBP6 RNA expression fold change” value [1]?
Answer: The value was “IGFBP6 ↑ x2.5”.

Question: What about the “IL 1 receptor-like 1 RNA expression fold change” value [1] of the same compound?
Answer: The value was “↑ x2”.

Question: What about the “IL-8 receptor type B RNA expression fold change” value [1] of the same compound?
Answer: The value was “↑ x1.5”.

Question: What about the “IP-4-phosphatase, type 1, isoform b RNA expression fold change” value [1] of the same compound?
Answer: The value was “↑ x2”.

Question: What about the “K+ large conductance Ca++-activated channel, subfamily M, β member 1 RNA expression fold change” value [1] of the same compound?
Answer: The value was “↑ x2.5”.

Question: And the “LTb4 (chemokine receptor-like 1) RNA expression fold change” value [1]?
Answer: The value was “receptor-like 1) ↑ x3”.

Question: What about the “PDGF, α polypeptide RNA expression fold change” value [1] of the same compound?
Answer: The value was “polypeptide ↑ x2.5”.

Question: What about the “PDGFR, α polypeptide RNA expression fold change” value [1] of the same compound?
Answer: Its value is “polypeptide ↑ x1.5”.

Question: And the “PI-3-kinase, class 2, β polypeptide RNA expression fold change” value [1]?
Answer: The value was “↑ x1.5”.

Question: And the “PI-3-kinase, class 3 RNA expression fold change” value [1]?
Answer: Its value is “class 3 ↑ x2”.

Question: What about the “PKC, α binding protein RNA expression fold change” value [1] of the same compound?
Answer: The value was “protein ↑ x2”.

Question: What about the “PLA2 RNA expression fold change” value [1] of the same compound?
Answer: Its value is “PLA2 ↑ x2”.

Question: What about the “Phosphatidylinositol glycan, class B RNA expression fold change” value [1] of the same compound?
Answer: The value was “↑ x1.5”.

Question: What about the “Programmed cell death 10 RNA expression fold change” value [1] of the same compound?
Answer: The value was “death 10 ↑ x1.5”.

Question: What about the “Putative chemokine receptor; GTP-binding protein RNA expression fold change” value [1] of the same compound?
Answer: The value was “binding protein ↑ x2.5”.

Question: And the “Rb binding protein RNA expression fold change” value [1]?
Answer: Its value is “protein ↑ x2”.

Question: What about the “Rb-binding protein 8 RNA expression fold change” value [1] of the same compound?
Answer: The value was “protein 8 ↑ x1.5”.

Question: What about the “S-phase kinase-associated protein 1A (p19A) RNA expression fold change” value [1] of the same compound?
Answer: Its value is 1A (p19A) ↑ x2.

Question: And the “SSTR2 RNA expression fold change” value [1]?
Answer: Its value is “SSTR2 ↑ x2”.

Question: And the “Solute carrier family 9 (Na+/H+ exchanger) isoform 3 regulatory factor 1 RNA expression fold change” value [1]?
Answer: The value was “↑ x10.5”.

Question: And the “TGF induced protein RNA expression fold change” value [1]?
Answer: Its value is “protein ↑ x1.5”.

Question: What about the “TNF (cachectin) RNA expression fold change” value [1] of the same compound?
Answer: Its value is “↑ x2”.

Question: And the “TNFR superfamily, member 12 RNA expression fold change” value [1]?
Answer: Its value is “member 12 ↑ x1.5”.

Question: What about the “Tumour protein p53-binding protein RNA expression fold change” value [1] of the same compound?
Answer: Its value is “protein ↑ x1.5”.

Question: And the “VEGF RNA expression fold change” value [1]?
Answer: Its value is “VEGF ↑ x1.5”.

Question: And the “Vasodilatator-stimulated phosphoprotein RNA expression fold change” value [1]?
Answer: Its value is “phosphoprotein ↑ x2”.

Question: What about the “β adrenergic receptor kinase 1 RNA expression fold change” value [1] of the same compound?
Answer: The value was “kinase 1 ↑ x3”.

Question: And the “S-phase kinase-associated protein 1A RNA expression fold change” value (↑ increase, treated vs controls, second listing, without (p19A))?
Answer: The value was 1A ↑ x2.

Question: And the “Adrenergic, α-2C-, receptor RNA expression fold change” value [2]?
Answer: Its value is “↓ x2”.

Question: And the “Cyclin I RNA expression fold change” value [2]?
Answer: The value was “Cyclin I ↓ x1.5”.

Question: And the “Dopamine receptor D4 RNA expression fold change” value [2]?
Answer: The value was “receptor D4 ↓ x2”.

Question: And the “EGF (β-urogastrone) RNA expression fold change” value [2]?
Answer: The value was “urogastrone) ↓ x2”.

Question: What about the “K+ voltage-gated channel, shaker-related subfamily, member 3 RNA expression fold change” value [2] of the same compound?
Answer: The value was “member 3 ↓ x3”.

Question: And the “Nuclear factor of activated T-cells, cytoplasmic, calcineurin-dependent 1 RNA expression fold change” value [2]?
Answer: Its value is “dependent 1 ↓ x5”.

Question: What about the “PI-3-kinase, catalytic, α polypeptide RNA expression fold change” value [2] of the same compound?
Answer: The value was “polypeptide ↓ x2.5”.

Question: And the “PTHR 1 RNA expression fold change” value [2]?
Answer: The value was “PTHR 1 ↓ x2.5”.

Question: What about the “TGFβ receptor III (betaglycan, 300 kD) RNA expression fold change” value [2] of the same compound?
Answer: Its value is 300 kD) ↓ x1.5.
